Assay results from patent US7351739B2, “Bioactive compounds and methods of uses thereof” (Wellgen, Inc., priority 2004, dated 2008).

How the values were obtained:
HT460 lung cancer cells = assay: Soft agar colony formation / human tumor phenotype expression; assay type: cell-based; conditions: for Effect against human lung cancer cells, colony formation (figure statement, in words): concentration not given
Protocol: (§1) Cell cultures: The JB6 mouse epidermal cell line Cl 41 or its stable AP-1 luciferase reporter plasmid stable transfectant was maintained with Eagles minimal essential medium (MEM), containing 5% fetal bovine serum (FBS), 2 mM L-glutamine and […] gentamicin or 50 IU/ml penicillin G and 50 μg/ml streptomycin, in an atmosphere of 95% air-5% CO2 at 37° C. Cells were seeded at a density of 5×10^4 cells/ml and cultured for 24 h. The cells were serum-starved in 0.1% FBS in MEM for 36 h to synchronize the cell cycle into G0 phase. The cells were treated with various concentrations of the test compound or distilled water (as a control) for 1 h, followed, by addition of MTS assay buffer for toxicity studies or 12-O-tetradecanoylphorbol-13-acetate (TPA) or epidermal growth factor (EGF at 10-20 ng/ml) to determine AP-1 activation. Some cells were used for cell transformation assays as described below. For human phenotype expression assays, human colon HCT116, human lung cancer HT460, human skin melanoma SK-MEL-28 or human ovarian SK-OV3 cells were cultured in their respective medium and harvested for soft agar assays.
(§2) Anchorage-independent transfornation assay: Inhibition of test compounds on TPA or EGF-induced cell transformation or human tumor phenotype expression was investigated under anchorage independent conditions. Samples of 1×10^4 cells were exposed to TPA (20 ng/ml) or EGF (20 ng/ml) with or without different concentrations of test compound inl ml 0.33% basal medium Eagle (BME) agar containing 10% FBS over 3.5 ml 0.5% BME agar medium containing 10% FBS. Gingerol was dissolved in 100% ethanol. Ethanol was used in the control group for comparison. The cultures were maintained in a 37° C., 5% CO2 incubator for 14-21 days and the cell colonies were scored by a computerized program integrated with a light microscope. Human tumor cells were treated in a similar manner but no EGF or TPA was needed.

[1] = test system: SK-MEL-28 skin cancer cells; assay: as above; assay type: cell-based
Protocol: as §1, §2

[2] = test system: HCT116 colon cancer cells; assay: as above; assay type: cell-based
Protocol: as §1, §2

JB6 C141 cells = assay: Anchorage-independent (soft agar) neoplastic cell transformation assay, EGF-exposed; assay type: cell-based, mouse
Protocol: as §1, §2

[3] = test system: skin cancer induced by UVA exposure in hairless mice; assay: UVA-induced skin tumors in SKh-1 hairless mice, topical treatment; assay type: in vivo; conditions: day 84, 30 micrograms per mouse on tumors, 5 days a week, day 21 to 53
Protocol: Twenty SKh-1 hairless mice were exposed to UVA to induce skin tumor formation. […] Rubescensin J was dissolved in DMSO and then brought up to volume in acetone. The two groups. of mice were treated with rubescensin J in acetone, and acetone alone, respectively. […] Five days a week, each mouse received a total of 30 micrograms applied directly on tumor(s) in a volume of 250 microliters. The compound was made fresh each day. Tumor numbers and sizes were monitored and recorded periodically.
Initial measurements were taken on day 1, 14 and 20, and the first treatment was applied on day 21. The experimental group of mice were treated with the compound 5 days a week until the compound was depleted on day 53. Measurement #1 through to #11 were made on day 14, 20, 24, 28, 32, 36, 39, 43, 51, 53, and 84. The numbers of tumor papillomas and the tumor volumes are expressed as a percentage of the number of papillomas and tumor volume on day 1.

[4] = test system: SK-OV-3 ovarian cancer cells; assay: Soft agar colony formation / human tumor phenotype expression; assay type: cell-based
Protocol: as §1, §2

[5] = test system: JB6 C141 mouse skin cells; assay: MTS toxicity (cell proliferation) assay; assay type: cell-based; conditions: 50 μM
Protocol: as §1, with “For human phenotype expression assays, human colon HCT116, human lung cancer HT460, human skin melanoma SK-MEL-28 or human ovarian SK-OV3 cells were cultured in their respective medium and harvested for soft agar assays.” left out
Cell Proliferation Assay (MTS Assay): Cell proliferation was analyzed using the CELLTITER 96® AQueous One Solution Cell Proliferation Assay (Promega, Madison, Wis.) following the instructions provided. […] Then the absorbance of a colored formazan product catalyzed by dehydrogenase enzymes in metabolically active cells was recorded at 492 nm with 690 nm as a background. Data were expressed as the percentage of absorbance of untreated control cells.

[6] = Homo sapiens, 25 μM, read-out: % Inhibition: HT 460 Lung Cancer

In the case of C=C1[C@@H](O)[C@@]23C(CC[C@@H]1[C@H]2O)[C@]12CCCC(C)(C)C1[C@H](O)[C@]3(O)OC2=O (stereo partly drawn) [Rabdoternin A], the “Inhibition of HT460 lung cancer cell growth (in words)” value (HT460 lung cancer cells; 25 μM) was “moderately inhibited”, the inhibition at 25 µM (HT460 lung cancer cells; [6]) was 10% and the “Effect against human lung cancer cells, colony formation (figure statement, in words)” value (“Effect against human lung cancer cells” for short) (HT460 lung cancer cells) was “moderate inhibitory effect”. For the same compound, the “Inhibition of SK-MEL-28 skin cancer cell growth (in words)” value ([1]; 15 μM) was “completely inhibits”, the inhibition at 25 µM ([1]; Homo sapiens, SK-MEL-28, 25 μM) was 100% and the “Effect against human skin melanoma cells, colony formation (figure statement, in words)” value (“Effect against human skin melanoma cells” for short) ([1]; concentration not given) was “particularly effective”. For the same compound, the “Inhibition of HCT116 colon cancer cell growth (in words)” value ([2]; 25 μM) was “completely inhibited”, the inhibition at 25 µM ([2]; Homo sapiens, HCT-116, 25 μM) was 100% and the “Decreasing colony formation, human colon cancer cells (figure statement, in words)” value (shortened to “Decreasing colony formation”) ([2]; concentration not given) was “particularly effective”. The “Inhibition of neoplastic transformation in JB6 cell (in words)” value (shortened to “Inhibition of neoplastic transformation”) (JB6 C141 cells; 25 μM) was “completely inhibits”, the “Prevention of neoplastic cell transformation, EGF, soft agar (figure statement, in words)” value (shortened to “Prevention … (figure statement, in words)”) (JB6 C141 cells; 25 μM) was “prevented neoplastic cell transformation” and the inhibition at 25 µM (JB6 C141 cells; Mus musculus, 25 μM) was 100%.
C=C1[C@@H](O)[C@@]23C(CC[C@@H]1[C@H]2O)[C@@]12C(=O)O[C@@]3(O)[C@@H](O)C1C(C)(C)CC[C@@H]2O (stereo partly drawn) [Rabdoternin B] was tested, and the inhibition at 35 µM (HT460 lung cancer cells; Homo sapiens, 35 μM, read-out: % Inhibition: HT 460 Lung Cancer) was 0%, the inhibition at 35 µM ([1]; Homo sapiens, SK-MEL-28, 35 μM) was 0% and the “Inhibition of HCT116 colon cancer cell growth (in words)” value ([2]; 50 μM) was “completely inhibited”. The inhibition at 50 µM ([2]; Homo sapiens, HCT-116, 50 μM) was 100%, the “Decreasing colony formation” value ([2]; concentration not given) was “particularly effective” and the “Inhibition of neoplastic transformation” value (JB6 C141 cells; 75 μM) was “completely inhibits”. For the same compound, the “Prevention … (figure statement, in words)” value (JB6 C141 cells; 75 μM) was “prevented neoplastic cell transformation” and the inhibition at 75 µM (JB6 C141 cells; Mus musculus, 75 μM) was 100%.
In the case of C=C1[C@@H](OC(C)=O)[C@]23[C@H](O)[C@H]1CC[C@H]2[C@]12CCCC(C)(C)[C@H]1[C@H](OC(C)=O)[C@]3(O)OC2 [Rabdoternin C], the “% Inhibition: HT 460 Lung Cancer” value (HT460 lung cancer cells; 100 μM) was 14%, the “Inhibition of HT460 lung cancer cell growth (in words)” value (HT460 lung cancer cells; 100 μM) was “moderately inhibited” and the “Effect against human lung cancer cells” value (HT460 lung cancer cells) was “some inhibitory effect”. The “% Inhibition: SK-MEL-28 Skin Cancer” value ([1]; 100 μM) was 5-10%, the “Inhibition of SK-MEL-28 skin cancer cell growth (in words)” value ([1]; 100 μM) was “moderately inhibited” and the “Effect against human skin melanoma cells” value ([1]; concentration not given) was “some inhibitory effect”. The “% Inhibition: HCT116 Colon Cancer Cells” value ([2]; 100 μM) was 68%, the “Inhibition of HCT116 colon cancer cell growth (in words)” value ([2]; 100 μM) was “significantly inhibited” and the “Decreasing colony formation” value ([2]; concentration not given) was “particularly effective”. The “Prevention of neoplastic cell transformation, EGF, soft agar (FIG. 21)” value (JB6 C141 cells; 10 μM) was 50%, the “Inhibition of neoplastic transformation” value (JB6 C141 cells; 100 μM) was “completely inhibits” and the “% Inhibition: Neoplastic Transformation in JB6 Cells” value (“% Inhibition … in JB6 Cells” for short) (JB6 C141 cells; text b465: 50% at 10 μM) was 50%.
CC1(C)CC[C@H](O)[C@]23CO[C@@](O)([C@@H](O)C12)[C@]12C(=O)[C@@]4(CO4)[C@H](CCC31)[C@H]2O (stereo partly drawn) [Rubescensin J, 1α, 6β, 7β, 14β-tetrohydroxy-7α,20-epoxy-ent-kaur-16,17-exo-epoxide-15-one] was tested, and the “Number of tumor papillomas as percentage of the number on day 1” value ([3]; untreated group about 90%) was about 50%, the “Tumor volume as percentage of the volume on day 1” value ([3]; untreated group about 120%) was “about 60%” and the “Inhibition of HT460 lung cancer cell growth (in words)” value (HT460 lung cancer cells; 20 μM) was “moderately inhibits”. The inhibition at 20 µM (HT460 lung cancer cells; Homo sapiens, 20 μM, read-out: % Inhibition: HT 460 Lung Cancer) was 20%, the “Effect against human lung cancer cells” value (HT460 lung cancer cells) was “moderate inhibitory effect” and the “Inhibition of SK-OV-3 ovarian cancer cell growth (in words)” value ([4]; 20 μM) was “moderately inhibits”. The inhibition at 20 µM ([4]; Homo sapiens, SK-OV-3, 20 μM) was 15%, the “Effect against human ovarian cancer cells, colony formation (figure statement, in words)” value ([4]; concentration not given) was “moderate inhibitory effect” and the “Effect against human skin melanoma cells” value ([1]; 20 μM) was “particularly effective”. For the same compound, the “Inhibition of SK-MEL-28 skin cancer cell growth (in words)” value ([1]; 20 μM) was “significantly inhibits”, the inhibition at 20 µM ([1]; Homo sapiens, SK-MEL-28, 20 μM) was 50% and the “Decreasing colony formation” value ([2]; 10 μM) was “particularly effective”. For the same compound, the “Inhibition of HCT116 colon cancer cell growth (in words)” value ([2]; 20 μM) was “completely inhibits”, the inhibition at 20 µM ([2]; Homo sapiens, HCT-116, 20 μM) was 100% and the “Prevention … (figure statement, in words)” value (JB6 C141 cells; 25 μM) was “prevented neoplastic cell transformation”. The “Inhibition of neoplastic transformation” value (JB6 C141 cells; 40 μM) was “completely inhibits” and the “% Inhibition … in JB6 Cells” value (JB6 C141 cells; 20-40 μM) was 83-100 (20-40 μM) %.
CC1OC(OC2C(O)C(CO)OC(OCCc3ccc(OC(=O)/C=C/c4ccc(O)c(O)c4)c(O)c3)C2O)C(O)C(O)C1O (stereo not drawn) [Rubscendepside] was tested, and the “Toxicity evaluation with MTS assay (in words)” value [5] was “no Rubscendepside toxicity”, the “Inhibition of HT460 lung cancer cell growth (in words)” value (HT460 lung cancer cells; 25 μM) was “moderately inhibits” and the inhibition at 25 µM (HT460 lung cancer cells; [6]) was 37%. For the same compound, the “Effect against human lung cancer cells” value (HT460 lung cancer cells) was “moderate inhibitory effect”, the “Inhibition of SK-MEL-28 skin cancer cell growth (in words)” value ([1]; 25 μM) was “moderately inhibits” and the inhibition at 25 µM ([1]; Homo sapiens, SK-MEL-28, 25 μM) was 36%. The “Effect against human skin melanoma cells” value ([1]; concentration not given) was “moderate inhibitory effect”, the “Inhibition of HCT116 colon cancer cell growth (in words)” value ([2]; 15 μM) was “significantly inhibits” and the inhibition at 15 µM ([2]; Homo sapiens, HCT-116, 15 μM) was 60%. For the same compound, the “Decreasing colony formation” value ([2]; concentration not given) was “particularly effective”, the “Prevention … (figure statement, in words)” value (JB6 C141 cells; 25 μM) was “prevented neoplastic cell transformation” and the “Inhibition of neoplastic transformation” value (JB6 C141 cells; 50 μM) was “completely inhibits”. For the same compound, the “% Inhibition … in JB6 Cells” value (JB6 C141 cells; 20-50 μM) was 80-100 (20-50 μM) %.
For Rubescensin M, the “% Inhibition: HT 460 Lung Cancer” value (HT460 lung cancer cells; 75 μM) was 73%, the “Effect against human lung cancer cells” value (HT460 lung cancer cells) was “moderate inhibitory effect” and the “% Inhibition: SK-MEL-28 Skin Cancer” value ([1]; 50 μM) was 100%. For the same compound, the “Inhibition of SK-MEL-28 skin cancer cell growth (in words)” value ([1]; 50 μM) was “completely inhibited”, the “Effect against human skin melanoma cells” value ([1]; concentration not given) was “particularly effective” and the “% Inhibition: HCT116 Colon Cancer Cells” value ([2]; 75 μM) was 90%. The “Decreasing colony formation” value ([2]; concentration not given) was “particularly effective”, the “Inhibition of neoplastic transformation” value (JB6 C141 cells; 100 μM) was “almost completely inhibits” and the “Prevention … (figure statement, in words)” value (JB6 C141 cells; 100 μM) was “prevented neoplastic cell transformation”. The “% Inhibition … in JB6 Cells” value (JB6 C141 cells; text b462: 100 μM) was 90%.
